Measurements as given in patent publication US4567201A, “Diphenoxypropane derivatives and compositions of antiasthmatic and antiinflammatory agents thereof” (Takeda Chemical Industries, Ltd., priority 1981, dated 1986).

Tests used:
[1] = test system: bronchoconstriction due to leukotriene D4 (LTD4); experiment: Inhibition of bronchoconstriction due to intravenous LTD4 in guinea pigs (Konzett-Rossler); type: in vivo, guinea pig (Hartley strain); conditions: for Percent increase of overflow: 2 minutes before LTD4 10 μg/kg i.v., Mean±S.E.; for Percent inhibition: 2 minutes before LTD4 (Table 2)
Procedure: Guinea pigs of Hartley strain, both male and female, with body weights about 400 g were assigned to groups of 6 individuals, and the bronchoconstriction due to LTD4 were measured according to the method of Konzett-Rossler, [Konzett, H. and Rossler, R.: Naunyn-Schmiedebergs Archiv Fur Experimentelle Pathologie und Pharmakologie 195, 71-74 (1940)]. Each guinea pig was fixed in supine position under urethane anesthesia (1.5 g/kg, intraperitoneal) and the trachea was incised and connected to an artificial respiration apparatus, Rodent Respirator Model 680 [Harvard Apparatus Company, U.S.A.] via a cannula. The branch tube of this tracheal cannula was connected to Bronchospasm Transducer Model 7020 [Ugobasil Biological Research Apparatus, Italy]. Under the conditions of 5 to 7 ml of air per stroke, 70 strokes per minute and a lung loading pressure of 10 cmH2 O, the volume of overflowing air was recorded on Rectigraph-8S (Sanei Sokki Ltd., Japan) via a transducer. After administration of gallamine triethiodide (1 mg/kg, i.v.), 10 μ g/kg of histamine.2HCl was intravenously administered to investigate the response of the animal. Then, a solution of LTD4 in physiological saline (10 μg/kg) was intravenously administered and the bronchoconstriction elicited thereby was recorded for 15 minutes. Two minutes before LTD4 loading, compound (I)-A-1 was intravenously administered in a volume of 0.1 ml per 100 g body weight. Compound (I)-A-1 and LTD4 were administered through a cannula inserted into the jugular vein.
The compound (I)-A-1 was used as dissolved in physiological saline containing sodium hydrogen carbonate, and LTD4 was taken from a stock stored in methanol (1 mg/1 ml methanol) at -70° C.
The bronchoconstriction induced by intravenous administration of 10 μg/kg of LTD4 as given 2 minutes after the administration of physiological saline was maximal at the time of 30 seconds after the administration of LTD4 and, since then, was rapidly attenuated to about 50% at the time of 2 minutes but lasted till 15 minutes. Assuming that the response at complete obstruction is 100%, the values at 30 seconds and 15 minutes were 47.4±6.9% (n=6, Mean±S.E.) and 19.4±2.8% (Mean±S.E.), respectively (S.E.: standard error).
Then the present inventors studied the antagonistic action of the compound (I)-B against SRS-A using a synthetic LTD4 in the manner described on the compound (I)-A.
In each case, the bronchoconstriction following intravenous administration of 10 μg/kg of LTD4 at 2 or 30 minutes after the administration of physiological saline reached a maximum 30 seconds after the administration of LTD4, and then decreased to about 50% at 2 minutes after the administration of LTD4. The response continued for 15 minutes after the administration of LTD4. Repeated experiments using 6 animals per group gave mean degrees of maximum bronchoconstriction (30-second values) of 52.2-67.1% and 54.7-70.1%, respectively, as compared with the state of complete obstruction (100%). In experiment 1, the test compounds (I)-B-1, (I)-B-2 and Control compound-1 were each intravenously administered at two minutes before the administration of LTD4 and inhibitory effect on the bronchoconstriction was examined. The minimum effective doses (causing statistically significant differences as compared with the control group; significance level <5%) were 0.313, 0.313 and 5 mg/kg, respectively. The corresponding inhibition percentages were 41, 52 and 56%, respectively. In experiment 2, the test compounds were intravenously administered 30 minutes before the administration of LTD4 and the effect on the above response was examined. The minimum effective doses were 5, 5, and 20 mg/kg, respectively.
The test compounds were intravenously administered 2 minutes before the
intravenous administration of 10 μg/kg of LTD4.
The test compounds were intravenously administered 30 minutes before the
Each value was calculated from the volume (in percentage) of air […]

Acute toxicity in mice = type: in vivo, mouse (Jcl:ICR strain); conditions: 500 mg/kg oral
Procedure: Five 5-week-old male mice of Jcl:ICR strain, weighing 26.0 to 30.5 g, were used. Compound (I)-A-1 was suspended in a 5% solution of gum arabic and administered orally by gastric gavage at the level of 0.2 ml per 10 grams body weight.
Five 5-week-old male mice of Jcl:ICR strain, weighing 26.0 to 30.5 g, were used. Compound (I)-B-1 or (I)-B-2 was suspended in a 5% solution of gum arabic and administered orally by gastric gavage at the level of 0.2 ml per 10 grams body weight.

[2] = test system: leukotriene D4 (LTD4)-induced contraction of the guinea pig ileum; experiment: Anti-SRS-A activity: inhibition of LTD4-induced contraction of guinea pig ileum; conditions: 50% inhibition of LTD4-induced contraction (60-70% of maximum contraction), drug added 1 minute before LTD4
From the text: The present inventors studied the antagonistic action of compound (I)-A against SRS-A using a synthetic LTD4 in the following manner.
The inhibitory effect of the drug on the contractile response (60-70% of maximum contraction) of the ileum of guinea pig (body weight 300-350 g, female and male) to leukotriene D4 (LTD4) was investigated. In Tyrode solution containing atropine (10^-7 M) and mepyramine (10^-6 M), 3×10^-10 or 10^-9 M of LTD4 was repeatedly permitted to act on the guinea pig ileum and after the amplitude of contraction had become constant, a solution of the test drug was added to a final concentration of 10^-9 to 10^-4 M. After 1 minute, the same concentration of LTD4 was further added and the anti-SRS-A activity of the drug was calculated from the change in contraction amplitude by means of the following equation. [formula]
To obtain the IC50 value, the mole concentration of the drug showing a 50% inhibition of the contractile response was determined from plots on a graph.
The drug was used as dissolved in dimethyl sulfoxide. The solvent was used in an amount less than 1% which would not exert any influence on the ileum.

Carrageenin edema = Carrageenin edema in rats; type: in vivo, rat; conditions: for Percent inhibition: carrageenin edema; for Mean volume of edematous swelling ±S.E.: in ml (unit assumed)
Procedure: The volume of the right hind paw of each rat was measured and the test compound suspended in 4% gum arabic solution was orally administered in an amount of 1 ml/100 g body weight. Immediately thereafter, a further amount of water was given to make the total dosing volume 5 ml. After 1 hour, 0.05 ml of a 1% suspension of carageenin in physiological saline was subcutaneously injected into the foot pad. Three hours after the carrageenin injection, the volume of the paw was measured again and the volume of the edema was calculated as a difference between this measured volume of the paw and the volume before the injection.
In the case of intravenous administration, a solution of the test compound in an aqueous solution of NaHCO3 was intravenously administered in an amount of 2.0 ml/100 g body weight and 5 ml of water per animal was orally administered. Then, carrageenin was injected subcutaneously to produce edema.

## CCCc1c(OCC(O)COc2ccc(-c3nn[nH]n3)cc2Cl)ccc(C(C)=O)c1O (centres unmarked) [Compound (I)-A-1, 4-[3-[4-(tetrazol-5-yl)-2-chlorophenoxy]-2-hydroxypropoxy]-2-hydroxy-3-propylacetophenone]
[1]; 0.08 mg/kg i.v., 8 animals
  Percent increase of overflow: 29.1 ± 7.5%
[1]; 0.08 mg/kg i.v.
  Percent inhibition: 39%
[1]; 0.313 mg/kg i.v., 6 animals
  Percent increase of overflow: 28.1 ± 7.1%
[1]; 0.313 mg/kg i.v.
  Percent inhibition: 41%
[1]; 1.25 mg/kg i.v., 6 animals, *p<0.05 vs physiological saline control
  Percent increase of overflow: 23.4 ± 8.0%
[1]; 1.25 mg/kg i.v.
  Percent inhibition: 51%
[1]; 5 mg/kg i.v., 2 minutes before LTD4
  inhibition of LTD4 bronchoconstriction (in words): substantially complete inhibition
[1]; 5 mg/kg i.v., 6 animals, ***p<0.001 vs physiological saline control
  Percent increase of overflow: 3.3 ± 2.1%
[1]; 5 mg/kg i.v.
  Percent inhibition: 93%
[1]; intravenously administered 2 minutes before LTD4 dosing
  inhibitory effect against LTD4 bronchoconstriction (in words): remarkable inhibitory effect
Acute toxicity in mice; after 1 week
  Autopsy findings: did not reveal any abnormalities
Acute toxicity in mice; male mice
  symptoms attributable to compound after oral administration: no symptoms
[2]
  IC50: 4.1 nM
Carrageenin edema; 1 mg/kg i.v.
  Percent inhibition: 19.2%
  Mean volume of edematous swelling ±S.E.: 0.442 ± 0.044
Carrageenin edema; 10 mg/kg i.v.
  Percent inhibition: 25.0%
Carrageenin edema; 10 mg/kg i.v., *p<0.05
  Mean volume of edematous swelling ±S.E.: 0.410 ± 0.046
Carrageenin edema; 50 mg/kg p.o., 3 hours after carrageenin, *p<0.05
  Mean volume of edematous swelling ±S.E.: 0.487 ± 0.023
Carrageenin edema; 50 mg/kg p.o.
  Percent inhibition: 15.0%
Carrageenin edema; rat, in vivo
  antiinflammatory activity (in words): has an antiinflammatory activity
